Reference: US20230287138A1, “PROTEIN-DRUG CONJUGATES COMPRISING CAMPTOTHECIN ANALOGS AND METHODS OF USE THEREOF” (Regneron Pharmaceuticals, Inc., priority 2022, published 2023)
Where a name gives a salt, the structure may show the parent alone. Read-outs that look alike come from different tables or passages of the source. Where a SMILES comes first, the peptide text is derived from it. The star is where a group is joined. Exatecan = CC[C@@]1(O)C(=O)OCc2c1cc1n(c2=O)Cc2c-1nc1cc(F)c(C)c3c1c2[C@@H](N*)CC3; Acetyl(cyclooct-2-yn-1-ylO) = O=C(COC1C#CCCCCC1)*

Tested on: HCT-15
Test: HCT-15 data of payloads and linker-payloads (EC50, with or without verapamil)
Assay type: cell-based
[1] = Homo sapiens, payload, HCT-15 cells, no verapamil, read-out: HCT-15 EC50
[2] = payload, HCT-15 cells plus verapamil, read-out: HCT-15 + verapamil EC50
[3] = Homo sapiens, linker-payload, HCT-15 cells, read-out: HCT-15 EC50

Row | Structure (SMILES) | EC50 [1] [nM] | EC50 [2] [nM] | further results
1 | CC[C@@]1(O)C(=O)OCc2c1cc1n(c2=O)Cc2c-1nc1cc(F)c(C)c3c1c2[C@@H](NC(=O)[C@@H](N)CCC(=O)O)CC3 [P3, (4S)-4-amino-4-{[(10S,23S)-10-ethyl-18-fluoro-10-hydroxy-19-methyl-5,9-dioxo-8-oxa-4,15-diazahexacyclo[[14.7.1.0^2,^14.0^4,^13.0^6,^11.0^20,^24]]tetracosa-1,6(11),12,14,16,18,20(24)-heptaen-23-yl]carbamoyl}butanoic acid] | 610 | 596 | 
2 | CC[C@@]1(O)C(=O)OCc2c1cc1n(c2=O)Cc2c-1nc1cc(F)c(C)c3c1c2[C@@H](NC(=O)CNC(=O)CNC(=O)CNC(=O)CNC(=O)COC1C#CCCCCC1)CC3 (stereo partly drawn) [LP8, 2-(2-{2-[2-(Cyclooct-2-yn-1-yloxy)acetamido]acetamido}acetamido)-N-({[(10S,23S)-10-ethyl-18-fluoro-10-hydroxy-19-methyl-5,9-dioxo-8-oxa-4,15-diazahexacyclo[14.7.1.0^2,^14.0^4,^13.0^6,^11.0^20,^24]tetracosa-1,6(11),12,14,16,18,20(24)-heptaen-23-yl]carbamoyl}methyl)acetamide] ({Acetyl(cyclooct-2-yn-1-ylO)}-GGGG-Exatecan) |  |  | EC50 [3]: 837 nM
3 | CC[C@@]1(O)C(=O)OCc2c1cc1n(c2=O)Cc2c-1nc1ccccc1c2CCNC(C)C [P8, Belotecan HCl salt, reference compound] |  | 3.09 | EC50 (payload, HCT-15 cells, no verapamil, read-out: HCT-15 EC50): 20 nM
4 | CC[C@@]1(O)C(=O)OCc2c1cc1n(c2=O)Cc2c-1nc1ccc(OC)cc1c2CN [P22, (19S)-10-(Aminomethyl)-19-ethyl-19-hydroxy-7-methoxy-17-oxa-3,13-diazapentacyclo[11.8.0.0^2,^11.0^4,^9.0^15,^20]henicosa-1(21),2,4,6,8,10,15(20)-heptaene-14,18-dione] | 31.9 | 40.5 | 
5 | CC[C@@]1(O)C(=O)OCc2c1cc1n(c2=O)Cc2c-1nc1cc(F)c(C)c3c1c2[C@@H](NC(=O)CO)CC3 [P12, Dxd, reference compound] | 7.99 |  | EC50 (Homo sapiens, payload, HCT-15 cells plus verapamil, read-out: HCT-15 + verapamil EC50): 4.18 nM
6 | CCc1c2c(nc3ccc(OC)cc13)-c1cc3c(c(=O)n1C2)COC(=O)[C@]3(O)CC [P17, (19S)-10,19-Diethyl-19-hydroxy-7-methoxy-17-oxa-3,13-diazapentacyclo[11.8.0.0^2,^11.0^4,^9.0^15,^20]henicosa-1(21),2,4,6,8,10,15(20)-heptaene-14,18-dione] | 1.59 | 1.44 | 
7 | CC[C@@]1(O)C(=O)OCc2c1cc1n(c2=O)Cc2cc3cc(OC)ccc3nc2-1 [P15, (19S)-19-Ethyl-19-hydroxy-7-methoxy-17-oxa-3,13-diazapentacyclo[11.8.0.0^2,^11.0^4,^9.0^15,^20]henicosa-1(21),2,4,6,8,10,15(20)-heptaene-14,18-dione] | 6.99 | 4.47 | 
8 | CC[C@@]1(O)C(=O)OCc2c1cc1n(c2=O)Cc2c-1nc1cc(F)c(C)c3c1c2[C@@H](NC(=O)CN)CC3 [P2, 2-Amino-N-[(10S,23S)-10-ethyl-18-fluoro-10-hydroxy-19-methyl-5,9-dioxo-8-oxa-4,15-diazahexacyclo[[14.7.1.0^2,^14.0^4,^13.0^6,^11.0^20,^24]]tetracosa-1,6(11),12,14,16,18,20(24)-heptaen-23-yl]acetamide] | 61.9 | 14.3 | 
9 | CC[C@@]1(O)C(=O)OCc2c1cc1n(c2=O)Cc2c-1nc1cc(F)c(C)c3c1c2[C@@H](NC(=O)[C@@H](N)Cc1ccccc1)CC3 [P5, (2S)-2-amino-N-[(10S,23S)-10-ethyl-18-fluoro-10-hydroxy-19-methyl-5,9-dioxo-8-oxa-4,15-diazahexacyclo[[14.7.1.0^2,^14.0^4,^13.0^6,^11.0^20,^24]]tetracosa-1,6(11),12,14,16,18,20(24)-heptaen-23-yl]-3-phenylpropanamide] | 48.2 | 4.2 | 
10 | CCc1c2c(nc3ccc(OC)cc13)-c1cc([C@@](O)(CC)C(=O)NCCN)c(COC(C)=O)c(=O)n1C2 [P18, {7-[(1 S)-1-[(2-Aminoethyl)carbamoyl]-1-hydroxypropyl]-12-ethyl-2-methoxy-9-oxo-9H,11H-indolizino[1,2-b]quinolin-8-yl}methyl acetate] | 32.5 | 32.8 | 
11 | CC[C@@]1(O)C(=O)OCc2c1cc1n(c2=O)Cc2cc3cc(O)ccc3nc2-1 [P14, 10-hydroxy camptothecin, reference compound] | 11.6 | 6.79 | 
12 | CCc1c2c(nc3ccc(O)cc13)-c1cc3c(c(=O)n1C2)COC(=O)[C@]3(O)CC [P16, 7-ethyl-10-hydroxycamptothecin, reference compound] | 6.11 | 4.77 | 
13 | CC[C@@]1(O)C(=O)OCc2c1cc1n(c2=O)Cc2c-1nc1ccc(OC)cc1c2CO [P20, (19S)-19-Ethyl-19-hydroxy-10-(hydroxymethyl)-7-methoxy-17-oxa-3,13-diazapentacyclo[11.8.0.0^2,^11.0^4,^9.0^15,^20]henicosa-1(21),2,4,6,8,10,15(20)-heptaene-14,18-dione] | 3.69 | 2.4 | 
14 | CC[C@@]1(O)C(=O)OCc2c1cc1n(c2=O)Cc2c-1nc1ccccc1c2CCN(CCO)C(C)C [P10, (19S)-19-ethyl-19-hydroxy-10-{2-[(2-hydroxyethyl)(propan-2-yl)amino]ethyl}-17-oxa-3,13-diazapentacyclo[11.8.0.0^2,^11.0^4,^9.0^15,^20]henicosa-1(21),2,4,6,8,10,15(20)-heptaene-14,18-dione] | 8.6 | 4.38 | 
15 | CC[C@@]1(O)C(=O)OCc2c1cc1n(c2=O)Cc2c-1nc1ccc(OC)cc1c2CNCc1ccccc1 [P26, (S)-11-((benzylamino)methyl)-4-ethyl-4-hydroxy-9-methoxy-1,12-dihydro-14H-pyrano[3′,4′:6,7]indolizino[1,2-b]quinoline-3,14(4H)-dione] | 51.9 |  | 
16 | CC[C@@]1(O)C(=O)OCc2c1cc1n(c2=O)Cc2c-1nc1cc(F)c(C)c3c1c2[C@@H](NC(=O)OCc1ccc(NC(=O)[C@H](CCCNC(N)=O)NC(=O)[C@@H](NC(=O)CCOCCOCCOCCOCCNC(=O)CCC(=O)N2Cc4ccccc4C#Cc4ccccc42)C(C)C)cc1)CC3 [LP2] |  |  | EC50 [3]: 145 nM
17 | CC[C@@]1(O)C(=O)OCc2c1cc1n(c2=O)Cc2c-1nc1ccc(OC)cc1c2Cn1nnc2c1CCCCCC2OCC(=O)O (stereo partly drawn) [P27, 2-((1-(((S)-4-ethyl-4-hydroxy-9-methoxy-3,14-dioxo-3,4,12,14-tetrahydro-1H-pyrano[3′,4′:6,7]indolizino[1,2-b]quinolin-11-yl)methyl)-4,5,6,7,8,9-hexahydro-1H-cycloocta[d][1,2,3]triazol-4-yl)oxy)acetic acid] | 78.8 |  | 
18 | CC[C@@]1(O)C(=O)OCc2c1cc1n(c2=O)Cc2c-1nc1cc(F)c(C)c3c1c2[C@@H](N)CC3 [P1, Exatecan mesylate, reference compound] | 1.22 | 1.13 | 
19 | CC[C@@]1(O)C(=O)OCc2c1cc1n(c2=O)Cc2c-1nc1cc(F)c(C)c3c1c2[C@@H](NC(=O)COCNC(=O)OCc1ccc(NC(=O)[C@H](C)NC(=O)[C@@H](NC(=O)CCOCCOCCOCCOCCNC(=O)COC2C#CCCCCC2)C(C)C)cc1)CC3 (stereo partly drawn) [LP15, {4-[(2S)-2-[(2S)-2-{1-[2-(cyclooct-2-yn-1-yloxy)acetamido]-3,6,9,12-tetraoxapentadecan-15-amido}-3-methylbutanamido]propanamido]phenyl}methyl N-[({[(10S,23S)-10-ethyl-18-fluoro-10-hydroxy-19-methyl-5,9-dioxo-8-oxa-4,15-diazahexacyclo[14.7.1.0^2,^14.0^4,^13.0^6,^11.0^20,^24]tetracosa-1,6(11),12,14,16,18,20(24)-heptaen-23-yl]carbamoyl}methoxy)methyl]carbamate] |  |  | EC50 [3]: 96.9 nM
20 | CC[C@@]1(O)C(=O)OCc2c1cc1n(c2=O)Cc2c-1nc1ccc(OC)cc1c2CN(C)Cc1ccc(OC)cc1 [P25, (S)-4-ethyl-4-hydroxy-9-methoxy-11-(((4-methoxybenzyl)(methyl)amino)methyl)-1,12-dihydro-14H-pyrano[3′,4′:6,7]indolizino[1,2-b]quinoline-3,14(4H)-dione] | 46.8 |  | 
21 | CC[C@@]1(O)C(=O)OCc2c1cc1n(c2=O)Cc2c-1nc1ccccc1c2CCN(C(C)C)S(C)(=O)=O [P9, N-{2-[(19S)-19-ethyl-19-hydroxy-14,18-dioxo-17-oxa-3,13-diazapentacyclo[11.8.0.0^2,^11.0^4,^9.0^15,^20]henicosa-1(21),2,4,6,8,10,15(20)-heptaen-10-yl]ethyl}-N-(propan-2-yl)methanesulfonamide] | 8.89 | 3.03 | 
22 | CC[C@@]1(O)C(=O)OCc2c1cc1n(c2=O)Cc2c-1nc1cc(F)c(C)c3c1c2[C@@H](NC(=O)CNC(=O)OCc1ccc(NC(=O)[C@H](CCCNC(N)=O)NC(=O)[C@@H](NC(=O)CCOCCOCCOCCOCCNC(=O)COC2C#CCCCCC2)C(C)C)cc1)CC3 (stereo partly drawn) [LP5, {4-[(2S)-5-(Carbamoylamino)-2-[(2S)-2-{1-[2-(cyclooct-2-yn-1-yloxy)acetamido]-3,6,9,12-tetraoxapentadecan-15-amido}-3-methylbutanamido]pentanamido]phenyl}methyl N-({[(10S,23S)-10-ethyl-18-fluoro-10-hydroxy-19-methyl-5,9-dioxo-8-oxa-4,15-diazahexacyclo[14.7.1.0^2,^14.0^4,^13.0^6,^11.0^20,^24]tetracosa-1,6(11),12,14,16,18,20(24)-heptaen-23-yl]carbamoyl}methyl)carbamate] |  |  | EC50 [3]: > 1000 nM
23 | CC[C@@]1(O)C(=O)OCc2c1cc1n(c2=O)Cc2c-1nc1cc(F)c(C)c3c1c2[C@@H](NC(=O)[C@@H](N)CCCCN)CC3 [P4, (2S)-2,6-diamino-N-[(10S,23S)-10-ethyl-18-fluoro-10-hydroxy-19-methyl-5,9-dioxo-8-oxa-4,15-diazahexacyclo[[14.7.1.0^2,^14.0^4,^13.0^6,^11.0^20,^24]]tetracosa-1,6(11),12,14,16,18,20(24)-heptaen-23-yl]hexanamide] | 447 | 581 | 
